From ChEMBL document CHEMBL1140758, “Chemoenzymatic synthesis and antiviral evaluation of conformationally constrained and 3'-methyl-branched carbanucleosides using both enantiomers of the same building block” (Bioorg Med Chem, 2008)
Active and inactive are the calls of the source.

Tests used:
Type in all cases: functional, organism-based
[1] = system: Human alphaherpesvirus 2; assay: Antiviral activity against HSV2 G in HEL cells at 100 ug/mL
[2] = system: Human alphaherpesvirus 1; assay: Antiviral activity against HSV1 KOS in HEL cells at 100 ug/mL
[3] = system: Vaccinia virus; assay: Antiviral activity against vaccinia virus in HEL cells at 100 ug/mL; conditions: Orthopoxvirus vaccinia
[4] = system: Vesicular stomatitis virus; assay: Antiviral activity against VSV in HEL cells at 100 ug/mL
[5] = system: Human alphaherpesvirus 1; assay: Antiviral activity against thymidine kinase deficient HSV1 KOS in HEL cells at 100 ug/mL
[6] = system: Human respirovirus 3; assay: Antiviral activity against parainfluenza 3 virus in Vero cells at 100 ug/mL
[7] = system: Mammalian orthoreovirus 1; assay: Antiviral activity against Reovirus1 in Vero cells at 100 ug/mL
[8] = system: Sindbis virus; assay: Antiviral activity against Sindbis virus in Vero cells at 100 ug/mL
[9] = system: Coxsackievirus B4; assay: Antiviral activity against Coxsackie virus B4 in Vero cells at 100 ug/mL
[10] = system: Punta Toro virus; assay: Antiviral activity against Punta Toro virus in Vero cells at 100 ug/mL
[11] = system: Vesicular stomatitis virus; assay: Antiviral activity against VSV in HeLa cells at 100 ug/mL
[12] = system: Coxsackievirus B4; assay: Antiviral activity against Coxsackie virus B4 in HeLa cells at 100 ug/mL
[13] = system: Respiratory syncytial virus; assay: Antiviral activity against RSV in HeLa cells at 100 ug/mL
[14] = system: Influenza A virus; assay: Antiviral activity against influenza A virus H3N2 in MDCK cells at 100 ug/mL
[15] = system: Influenza A virus; assay: Antiviral activity against influenza A virus H1N1 in MDCK cells at 100 ug/mL
[16] = system: Influenza B virus; assay: Antiviral activity against influenza B virus in MDCK cells at 100 ug/mL

Measured: Activity

C[C@]12C[C@H](n3cnc4c(NC5CC5)ncnc43)C[C@@]1(CO)O2
inactive: [1] | [2] | [3] | [4] | [5] | [6] | [7] | [8] | [9] | [10] | [11] | [12] | [13] | [14] | [15] | [16]

C[C@]12O[C@H]1[C@H](n1cnc3c(NC4CC4)nc(N)nc31)C[C@@H]2CO
inactive: [1] | [2] | [3] | [4] | [5] | [6] | [7] | [8] | [9] | [10] | [11] | [12] | [13] | [14] | [15] | [16]

C[C@]12O[C@H]1[C@H](n1cnc3c(NC4CC4)ncnc31)C[C@@H]2CO
inactive: [1] | [2] | [3] | [4] | [5] | [6] | [7] | [8] | [9] | [10] | [11] | [12] | [13] | [14] | [15] | [16]

C[C@]12C[C@H](n3cnc4c(NC5CC5)nc(N)nc43)C[C@@]1(CO)O2
inactive: [1] | [2] | [3] | [4] | [5] | [6] | [7] | [8] | [9] | [10] | [11] | [12] | [13] | [14] | [15] | [16]

C[C@]12O[C@H]1[C@H](n1cnc3c(N)ncnc31)C[C@@H]2CO
inactive: [1] | [2] | [3] | [4] | [5] | [6] | [7] | [8] | [9] | [10] | [11] | [12] | [13] | [14] | [15] | [16]

C[C@]12C[C@H](n3cnc4c(N)ncnc43)C[C@@]1(CO)O2
inactive: [1] | [2] | [3] | [4] | [5] | [6] | [7] | [8] | [9] | [10] | [11] | [12] | [13] | [14] | [15] | [16]
